Tests used:
[1] = Isothermal titration calorimetry (ITC) of CL-containing vesicles with TTAPE-Me; type: binding; conditions: 25° C., CL-containing vesicles TOCL/DOPC 1:1, curve fitting, read-out: dissociation constant
Description: [dye]=10 μM; [lipid]total=22 μM; λex=350 nm. (B) Job plot for determination of the binding stoichiometry of TTAPE-Me to CL-containing vesicles. The total concentration of TTAPE-Me and CL is kept at 20 μM. (C) calorimetric curves for titration of CL-containing vesicles with serial injections of TTAPE-Me at 25° C. (D) Binding isotherm as a function of [TTAPE-Me]/[lipid]total molar ratio. CL-containing vesicles are composed of TOCL and DOPC (1:1 molar ratio).
According to the AIE principle, TTAPE-Me is only fluorescent when bound, and thus the fluorescence can report the binding of TTAPE-Me to CL-containing vesicles. The emission intensity varying ratios of TTAPE-Me to CL-containing LUVs is then recorded and correlated to a Job plot (FIG. 5B). The plot has a peak at ˜0.67, corresponding to a 2:1 binding ratio for TOCL to TTAPE-Me. The binding ratio perfectly matches the charge ratio, providing further support that the binding of TTAPE-Me towards CL is primarily driven by electrostatic interaction. […] The binding curve was generated by integration of the area of each injection peak followed by the subtraction of the dilution heat of dye molecules (FIG. 5D).

pUC 18 DNA, 2686 bp = experiment: Fluorescence of TTAPE-Me in the presence of plasmid DNA; conditions: wide range of DNA concentrations; [dye]=10 μM; λex=350 nm
Description: (TTAPE-Me with CL-containing LUVs is shown for comparison) [dye]=10 μM; λex=350 nm.
On the other hand, one might think that the negatively charged mitochondrial DNA (mtDNA) may interfere with the detection of CL by TTAPE-Me.

[2] = Fluorescence response to vesicles of different single mitochondrial lipids; conditions: 20% TOCL, 100% DOPC, 40% DPPE, 2% soy PI, 1% DOPS, 2% SM, rest DOPC; [dye]=10 μM; [lipid]total=22 μM
Description: (§1) Emission spectra of (C) TTAPE-Me and (D) NAO with CL-containing and CL-free all-component vesicles are shown. (E) Bar chart of the change in fluorescence intensity shown in panels C and D (red: CL-containing vesicles, blue: CL-free vesicles). [dye]=10 μM; [lipid]total=22 μM; for TTAPE-Me: λex=350 nm and λem=480 nm; for NAO: λex=499 nm and λem=530 nm.
To further evaluate the specificity of TTAPE-Me towards CL, the response of TTAPE-Me to other major lipids found on mitochondrial membranes was examined. The other major lipids evaluated were 1,2-dipalmitoleoyl-sn-glycero-3-phosphoethanolamine (DPPE):
Six different types of LUVs were fabricated and were composed of each of the above lipids and TOCL and DOPC at the exact percentage as mitochondrial membrane, with the remaining percentage of each type of LUV filled by DOPC.
While DOPS and PI are also negatively charged, they carry only one charge per molecule and share only 1% and 2% of the total mitochondrial membrane lipids, respectively (CL for ˜20%).

[3] = Fluorescence response to CL-containing and CL-free all-component LUVs; conditions: [dye]=10 μM
Description: as §1
Meanwhile, to mimic the mitochondrial membranes, CL-containing and CL-free all-component LUVs were prepared. The CL-containing and CL-free all-component LUVs were composed by the mixture of all the above mentioned lipids at their physiological ratios (FIG. 9A-9B). […] With the CL-containing LUVs, the greenish-blue fluorescence is enhanced by over 3-fold (FIGS. 7C & E). Parallel experiments were conducted with NAO as the probe. NAO is a turn-off sensor whose fluorescence is decreased in the presence of CL (FIG. 7D). However, CL is not the only lipid that induces the decrease of NAO signals—other lipids such as DPPE, PI, or DOPS, can also induce the decrease of NAO signals to a large extent (FIG. 7B).

[4] = Fluorescence response of dye to CL-containing (TOCL/DOPC) and CL-free (DOPC) LUVs; conditions: for emission with CL-containing vesicles: TOCL/DOPC 1:1, 25 mM HEPES pH 7.4, λex=350 nm
Description: CL-containing vesicles are composed of TOCL/DOPC (1:1 molar ratio), and CL-free vesicles are composed of pure DOPC, respectively, in a 25 mM HEPES buffer at pH 7.4. [dye]=10 μM; [lipid]total=22 μM; λex=350 nm.
FIG. 3A is a plot of the fluorescence enhancement (I/I0−1) of TTAPE-Me at 480 nm with CL-containing and CL-free vesicles.
FIG. 3B is the linear region of the I/I0−1 value versus CL concentration. [dye]=10 μM; λex=350 nm.
FIG. 4B is a plot of the fluorescence enhancement at 480 nm versus CL content. [dye]=10 μM; [lipid]total=22 μM; λex=350 nm.
CL-containing and CL-free vesicles are composed of TOCL/DOPC (1:1 molar ratio) and pure DOPC, respectively, in a 25 mM HEPES buffer at pH 7.4. [dye]=10 μM; [lipid]total=22 μM; λex=350 nm.
The fluorescence enhancement (I/I0−1) of TTAPE-Me at 480 nm is in a linear fashion in the CL concentration of 0-10 μM (FIG. 3B), which lies in the physiological range of CL in mitochondrial membrane. Linear detection of CL can also be obtained with the varying content of TOCL (2-50% TOCL) in the vesicles (FIG. 4A-4B). The results imply that flexible TTAPE-Me to CL ratio is allowed in the detection and quantification of CL. In contrast, conventional NAO requires strict 2:1 ratio of NAO/CL for quantitative measurement. Moreover, the detection of CL can be done immediately upon mixing the vesicles with the probe without any extra treatment.
To determine whether TTAPE-Me can specifically detect CL, two types of large unilamellar vesicles (LUVs) 100-200 nm in diameter were prepared (FIG. 2A-2B). The CL-free vesicles were prepared by pure 1,2-dioleoyl-sn-glycero-[…] (DOPC), which is the most abundant phospholipid in eukaryotic membranes. CL-containing vesicles were fabricated by the mixture of 1,1′,2,2′-tetraoleoyl cardiolipin (TOCL) and DOPC, in which the zwitterionic DOPC is used to stabilize the vesicles.

isolated mitochondria = experiment: Quantification and staining of isolated yeast mitochondria by fluorescence; design: species or system S. cerevisiae strain YPH 500; conditions: SEM buffer pH 7.2; [dye]=10 μM; λex=350 nm; emission at 480 nm
From the text: Individual mitochondria from S. cerevisiae strain YPH 500 have been isolated and calibrated by Biuret test. […] In contrast, time-consuming and intricate procedures are involved when using NAO for the quantification of isolated mitochondria. The isolated mitochondria are fixed by formaldehyde, followed by multiple rinsing, centrifugation and resuspension steps. Further, the signal-to-noise ratio by using NAO is much smaller, likely due to the strong background of NAO in solution.

[5] = background statement; cited from earlier work
[6] = [dye]=10 μM, [lipid]total=22 μM

Kd [1] [nM] | SMILES | fluorescence in the presence of plasmids (pUC 18 DNA, 2686 bp) | fluorescence response to vesicles of different lipid contents (selectivity) [2] | emission spectrum with CL-free all-component LUVs ([3]; [lipid]total=22 μM) | fluorescence enhancement with CL-containing all-component LUVs ([3]; [lipid]total=22 μM, λex=350 nm, λem=480 nm) | emission with CL-containing vesicles [4, 6] | fluorescence with CL-containing vesicles on increase of NaCl concentration [4, 6] | emission with CL-free vesicles ([4]; pure DOPC vesicles, increasing total lipid concentration) | relation of fluorescence intensity to mitochondria concentration (isolated mitochondria) | water-solubility [5] | fluorescence in the presence of CL (all-component LUVs) ([3]; λex=499 nm, λem=530 nm)
2080 | C[N+](C)(C)CCOc1ccc(C(=C(c2ccc(OCC[N+](C)(C)C)cc2)c2ccc(OCC[N+](C)(C)C)cc2)c2ccc(OCC[N+](C)(C)C)cc2)cc1.[Br-].[Br-].[Br-].[Br-] [TTAPE-Me, 1,1,2,2-tetrakis[4-(2-trimethylammonio-ethoxy)phenyl]ethene tetrabromide] | no fluorescence enhancement | selectively turned on with the TOCL vesicles | remains identical to that of the free dye in buffer | over 3 fold | turned on | diminishes | remains rather weak | linear relationship | – | –
– | CCCCCCCCC[n+]1c2cc(N(C)C)ccc2cc2ccc(N(C)C)cc21.[Br-] [NAO, 10-N-nonyl acridine orange, reference compound] | – | poor selectivity | – | – | – | – | – | – | poor water-solubility | decreased
– | O=S(=O)([O-])CCCOc1ccc(/C(=C(\c2ccccc2)c2ccc(OCCCS(=O)(=O)[O-])cc2)c2ccccc2)cc1.[Na+].[Na+] [BSPOTPE, reference compound] | – | – | – | – | no remarkable fluorescence enhancement | – | – | – | – | –

— patent US10113968B2, “Specific detection and quantification of cardiolipin and isolated mitochondria by positively charged AIE fluorogens and method of manufacturing thereof” (priority 2013, dated 2018)
